Assay results as given in article PMC6131557, “Selective Cytotoxicity of Dihydroorotate Dehydrogenase Inhibitors to Human Cancer Cells Under Hypoxia and Nutrient-Deprived Conditions” (Frontiers in Pharmacology, 2018).

What was measured:
HBC-5 = test: 39-cancer cell panel assay: HBC-5; type: cell-based; details: Homo sapiens, HBC5, Br
HCT-15 = test: 39-cancer cell panel assay: HCT-15; type: cell-based; details: Homo sapiens, Co
HBC-4 = test: 39-cancer cell panel assay: HBC-4; type: cell-based; details: Homo sapiens, HBC4, Br
NCI-H23 = test: 39-cancer cell panel assay: NCI-H23; type: cell-based; details: Homo sapiens, Lu
[1] = Cytotoxicity assay (Cell Counting Kit-8 / WST-8) on DLD-1 cells; type: cell-based, human; details: human, DLD-1 colorectal adenocarcinoma cells; DLD-1, original medium, normal oxygen, 100 μM, 24 h
MKN45 = test: 39-cancer cell panel assay: MKN45; type: cell-based; details: Homo sapiens, MKN-45, St
Complex II = biological target: T1, Complex II (Bos taurus, UniProt P35720+Q3T189+Q95123); test: Succinate:quinone reductase (complex II) activity, bovine mitochondria; type: biochemical
T1 construct: from tissue; host or cells: bovine mitochondrial fraction / sub-mitochondrial particles

DMS273 = test: 39-cancer cell panel assay: DMS273; type: cell-based; details: Homo sapiens, DMS-273, Lu
SF-268 = test: 39-cancer cell panel assay: SF-268; type: cell-based; details: Homo sapiens, CNS
Complex III = biological target: T2, Complex III (Bos taurus, UniProt P00157); test: Quinol oxidase (complex III) activity, bovine mitochondria; type: biochemical; details: ubiquinol oxidase activity
T2 construct: from tissue; host or cells: bovine mitochondrial fraction / sub-mitochondrial particles

T1 sequence (P31039 45-665 partner limits assumed): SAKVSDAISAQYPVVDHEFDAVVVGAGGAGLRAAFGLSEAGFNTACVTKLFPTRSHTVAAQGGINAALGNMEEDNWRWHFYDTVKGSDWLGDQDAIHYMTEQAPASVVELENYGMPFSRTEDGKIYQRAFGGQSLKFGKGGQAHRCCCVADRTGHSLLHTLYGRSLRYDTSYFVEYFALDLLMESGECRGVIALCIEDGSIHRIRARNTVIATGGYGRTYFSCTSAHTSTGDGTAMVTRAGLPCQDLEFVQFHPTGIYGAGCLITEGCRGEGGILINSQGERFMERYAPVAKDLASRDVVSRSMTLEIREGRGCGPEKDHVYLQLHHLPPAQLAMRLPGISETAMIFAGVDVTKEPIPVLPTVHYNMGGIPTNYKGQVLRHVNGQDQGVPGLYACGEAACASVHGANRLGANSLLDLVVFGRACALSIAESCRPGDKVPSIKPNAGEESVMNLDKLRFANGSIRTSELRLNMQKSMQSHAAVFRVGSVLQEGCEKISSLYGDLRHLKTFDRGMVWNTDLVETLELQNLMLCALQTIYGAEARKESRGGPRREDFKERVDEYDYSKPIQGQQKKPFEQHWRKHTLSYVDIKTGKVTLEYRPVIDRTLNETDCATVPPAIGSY
T1 sequence (Q3T189 29-280): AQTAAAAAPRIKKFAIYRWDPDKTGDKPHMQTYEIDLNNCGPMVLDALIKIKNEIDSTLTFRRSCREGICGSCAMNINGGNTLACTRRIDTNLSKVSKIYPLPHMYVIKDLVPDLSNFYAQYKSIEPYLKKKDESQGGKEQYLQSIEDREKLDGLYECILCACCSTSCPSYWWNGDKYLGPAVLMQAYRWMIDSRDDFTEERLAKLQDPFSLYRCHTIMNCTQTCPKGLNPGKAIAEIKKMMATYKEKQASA
T1 sequence (P35720 30-169): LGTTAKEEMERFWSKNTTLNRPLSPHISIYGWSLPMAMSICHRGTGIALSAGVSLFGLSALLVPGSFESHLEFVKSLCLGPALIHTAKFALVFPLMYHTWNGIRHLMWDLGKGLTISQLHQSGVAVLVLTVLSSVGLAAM
T1 sequence (Q95123 56-158): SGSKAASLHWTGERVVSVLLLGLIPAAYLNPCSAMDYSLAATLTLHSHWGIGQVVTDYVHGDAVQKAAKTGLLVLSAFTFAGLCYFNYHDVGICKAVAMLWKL

SMILES | GI50 (HBC-5) | GI50 (HCT-15) | GI50 (HBC-4) | GI50 (NCI-H23) | viability at 24 h, 100 µM [1] | GI50 (MKN45) | inhibition at 5 µM (Complex II) | GI50 (DMS273) | GI50 (SF-268) | inhibition at 5 µM (Complex III)
C/C(=C\Cc1c(O)c(Cl)c(C)c(C=O)c1O)CC/C=C(\C)[C@@H]1CC(=O)C(C)(C)O1 [Compound 1, ascofuranone] | 28 µM | 1.3 µM | 9.1 µM | 15 µM | ~80% | 10 µM | 1.5 ± 7.6% | 5.9 µM | 7 µM | 36 ± 1.2%
CC(C)=CCC/C(C)=C/CC/C(C)=C/Cc1c(O)c(Cl)c(C)c(C=O)c1O [Compound 8] | 16 µM | 0.043 µM | 2.2 µM | 2.8 µM |  | 6.4 µM | 8.2 ± 4.9% | 0.45 µM | 0.93 µM | > 80%
